Experimental data: patent US20180153859A1, “METHODS OF TREATING OR PREVENTING COGNITIVE IMPAIRMENT USING INDANE ACETIC ACID DERIVATIVES BASED ON APOE4 GENOTYPE” (T3D Therapeutics, Inc., priority 2016, published 2018)

System: mild to moderate severity Alzheimer's patients
Assay: ADAS-cog11 cognitive test in Alzheimer's patients stratified by ApoE4 genotype (trial NCT02560753)
Format: in vivo, human
Settings: for cognitive improvement (ADAS-cog11 score change): D1-D14 and D1-D21
Procedure: Table 8c compares the average ADAS-cog11 score of all subjects, treated at all doses of T3D-959 in trial NCT02560753 (ClinicalTrials.gov), stratified by ApoE4 genotype and compares those scores with the average score of the group of subjects dosed at 3 mg, 10 mg, and 30 mg/d. ADAS-cog11 score change from day 1 (pre-dosing) to day 14 (D1-D14, end of treatment) and from day 1 to day 21 (D1-D21, followup) are shown.
Shown in this table are ADAS-cog11 cognitive test score changes from before dosing on day 1 of treatment (D1) to end of drug treatment on Day 14 (D14) and at follow-up 7 days post-dosing on Day 21 (D21). Drug treatment of mild to moderate severity Alzheimer's patients (MMSE=14-26) with T3D-959 was for 14 days q.d. at 3 mg, 10 mg, 30 mg or 90 mg (n=number of subjects evaluable at each dose). The ADAS-cog11 test score changes at each dose were stratified by ApoE4 genotype [E4=one or two ApoE4 alleles, Non-E4=no ApoE4 alleles].
ADAS-cog score change from day 1 to day 14 (D1-D14) and from day 1 to day 21 (D1-D21) are shown.
Adult human subjects who were tested for the presence of the ApoE4 gene (one or two E4 alleles) and had Alzheimer's disease were tested with the compound of the invention ((1S)-5-{5-ethyl-2-(4-methoxyphenyl)-1,3-oxazol-4-yl]ethoxy}-2,3-dihydro-1H-inden-1-yl) acetic acid, sodium salt. Subjects either lacked ApoE4 alleles (non-E4) or had one or two ApoE4 alleles (E4).

In the case of `CCc1oc(-c2ccc(OC)cc2)nc1CCOc1ccc2c(c1)CC[C@H]2CC(=O)[O-].[Na+]`, the “most effective / required daily dose for cognitive improvement” value (AD subjects with one or two ApoE4 alleles) was no less than 30 mg, the “most effective daily dose for cognitive improvement” value (ApoE4 non-carrier AD subjects) was 3 to 30 mg qd and the “cognitive improvement (ADAS-cog11 score change)” value (ApoE4 non-carriers, 3 mg, 10 mg and 30 mg/d q.d. for 14 days) was “showed improvement in cognition”.

`CCc1oc(-c2ccc(OC)cc2)nc1CCOc1ccc2c(c1)CC[C@H]2CC(=O)[O-].[Na+]` [Example T3D-959] was tested, and the “cognitive improvement (ADAS-cog11 score change)” value (ApoE4 carriers (one or two ApoE4 alleles), 30 mg and 90 mg/d q.d. for 14 days) was “improvement” and the “cognitive improvement (ADAS-cog11 score change)” value (ApoE4 non-carriers, 3 mg, 10 mg and 30 mg/d q.d. for 14 days, acetic acid, sodium salt) was “greater cognitive improvement”.
